{"source": "patent US20110045102A1", "about": "“Cancer chemotherapy compositions comprising PI3K pathway modulators and triptolide” (priority 2005, published 2011)", "key": {"[1]": {"test_system": "OCC1-SEAP cells", "assay": "OCC1-SEAP cell response to carboplatin in vitro (DNA per well, SEAP in medium)", "type": "cell-based, human", "protocol": "OCC1-SEAP-12 cells were grown in Ham's F-12 medium (Gibco) plus 10% calf serum then collected into Hank's balanced salt solution and counted for injection into nude mice. For in vitro assays OCC1-SEAP-12 cells were plated at sequential twofold dilutions and allowed to adhere to culture wells and incubated for 24 hours. Alternatively, OCC1-SEAP-12 cells were grown to 80% confluence in Ham's F-12 medium plus 10% calf serum. Cells were starved for 48 hours in DMEM plus 0.1% BSA and 0.1% calf serum. Experimental treatments were applied for 2 days in DMEM plus 0.1% BSA and 0.1% calf serum. At the end of the treatment period a sample of culture medium was taken for SEAP level determination. DNA assays were performed by discarding the remaining culture medium from over the cells, adding buffer solution, sonicating the cells in each well, and measuring the fluorescence of cell solution into which SYBR Green I fluorescent dye (Molecular Probes, Eugene, Oreg.) had been incorporated as previously described (Parrott and Skinner 1999).\nBlood plasma and cell culture medium samples were assayed for SEAP activity using the Great EscAPe SEAP fluorescence detection kit (Clontech Laboratories, Palo Alto, Calif.). SEAP is secreted at a constant rate by transfected tumor cells and distributed throughout the body or into the culture medium. SEAP is heat stable, so any endogenous alkaline phosphatase activity in blood plasma is destroyed by heat treatment of the samples (65° C. for 30 minutes) during the assay. The SEAP enzyme in each sample acts on the substrate 4-methylumbelliferyl phosphate during a 1 hour incubation at room temperature to produce a fluorescent product with excitation and emission peaks at 360 and 449 nm, respectively. A fluorimeter is then used to measure SEAP activity. The intra-assay and inter-assay coefficients of variation were 2.5% and 18.8%, respectively. Blood plasma samples were diluted 1:100 prior to the assay to bring values within the linear range of the standard curve."}, "[2]": {"test_system": "OCC1-SEAP ovarian cancer cells", "assay": "Cell survival by DNA content of culture wells (Example II)", "type": "cell-based, human", "conditions": "48 hours; triptolide 100 ng/ml, carboplatin 50 (FIG. 8 legend: mg/ml)", "protocol": "Cell survival was assessed as the number of cells remaining in culture, following exposure to treatments. The DNA content of individual culture wells was used as an indication of cell number. Cells plated in 24 well culture plates were allowed to approach confluence (80%) in Ham's F-12 medium plus 10% BCS. Cultures were then incubated in DMEM, plus 0.1% BSA and 0.1% BCS, in the presence of vehicle control, carboplatin (0-100 μg/ml), Triptolide (100 ng/ml) or a combination of these for 24 to 96 hrs. Media aliquots were taken when appropriate for SEAP analysis. The DNA was measured fluorometrically, as described above, in Example I. Briefly, the fluorescence of an aliquot of sonicated cell suspension, into which SYBR Green I fluorescent dye (Molecular Probes, Eugene, Oreg.), had been incorporated was measured."}, "[3]": {"test_system": "OCC1-SEAP cell cultures", "assay": "DNA fragmentation (laddering) on agarose gel (Example II)", "type": "cell-based, human", "conditions": "48 hr; TPL 100 ng/ml, carboplatin 50 μg/ml", "protocol": "(§1) Following 48 h to 72 h treatment incubations, cells were suspended into culture medium and pelleted in tubes. DNA was isolated from collected cells using a Puregene™ DNA isolation kit (Gentra Systems, Minneapolis, Minn.). The quantity and purity of nucleic acid preparations were estimated by measuring the absorbance of each sample (A260/A280). DNA preparations (10 μg/well) were loaded onto 1.2% agarose gels and visualized with ethidium bromide stain."}, "[4]": {"test_system": "caspase-3", "assay": "Western blot for active caspase-3 (Example II)", "type": "cell-based, human", "conditions": "carboplatin alone"}, "[5]": {"test_system": "Akt", "assay": "Western blot for Akt phosphorylation (Example III)", "type": "cell-based, human", "conditions": "6 hr and 24 hr; LY294002 10 (FIG. 18 legend: mM), carboplatin 50", "protocol": "The OCC1-SEAP-12 cells were grown to 80% confluence. […] […] Total cell lysates were subjected to SDS polyacrylamide gel electrophoresis 9 page) and transferred to PVDF membranes (Millipore, Bedford, Mass.). Membranes were immunoblotted with antibodies to both the phosphorylated and non-phosphorylated forms of […] (Cell Signaling Technology, Beverly, Mass.), or alternatively, with antibodies to cleaved and full length caspase-3 (Cell Signaling Technology, Beverly, Mass.)."}, "[6]": {"test_system": "OCC1-SEAP-12 cells", "assay": "DNA laddering on agarose gel (Example III)", "type": "cell-based, human", "conditions": "48 hr and 72 hr", "protocol": "as §1, with “48 hr” for “48 h”, “72 hr” for “72 h”, “the optical density” for “the absorbance”, “sample A260/A280).” for “sample (A260/A280).”"}, "[7]": {"test_system": "OCC1-SEAP-12 ovarian cancer cells", "type": "in vivo", "protocol": "Athymic nude mice were obtained and inoculated intraperitoneally with OCC1-SEAP-12 cells as described above in Examples I and II. Animals received injections of either vehicle control (PBS containing 25% DMSO), or carboplatin (60 mg/kg) alone, or in combination with LY294002 (50 mg/kg) every other day for 6 days. Blood samples were collected into capillary tubes from saphenous vein lancings at regular intervals during and following treatments. Capillary tubes were centrifuged, and the plasma samples were frozen (−20° C.), until the time of SEAP assay. The Washington State University Animal Care and Use Committee approved all procedures.\nBlood plasma and cell culture medium samples were assayed for SEAP activity using the Great EscAPe SEAP fluorescence detection kit (Clontech Laboratories, Palo Alto, Calif.) as described above in Examples I and II. Blood plasma samples were diluted 1:100 prior to the assay to bring values within the linear range of the standard curve. The intraassay and interassay coefficients of variation were 2.5% and 18.8%, respectively."}}, "data": [{"molecule": "N.N.O=C([O-])C1(C(=O)[O-])CCC1.[Pt+2]", "note": "[carboplatin]", "values": [{"measurement": "normalized SEAP production (SEAP per amount of DNA per well)", "setting": "[1]; 60 micro g/ml carboplatin for 48 hours vs control", "value": "did not change"}, {"measurement": "SEAP levels in culture medium", "setting": "[1]; 60 micro g/ml carboplatin for 48 hours, control cells 11.1", "value": 3.9, "unit": "ng per 25 micro liter"}, {"measurement": "DNA levels", "setting": "[1]; 60 micro g/ml carboplatin for 48 hours, control cells 58 micro g/ml", "value": 35, "unit": "micro g/ml"}, {"measurement": "decrease in cell survival (μg DNA/ml) compared to control cultures", "setting": "[2]", "value": 30, "unit": "%"}, {"measurement": "DNA laddering", "setting": "[3]", "value": "evident"}, {"measurement": "time until caspase-3 is activated post-treatment", "setting": "[4]", "value": 48, "unit": "h"}, {"measurement": "Akt phosphorylation", "setting": "[5]", "value": "had not effect"}, {"measurement": "DNA laddering", "setting": "[6]", "value": "observed"}, {"measurement": "drug induced toxicity", "setting": "[7]; carboplatin 60 mg/kg, alone or with LY294002 50 mg/kg", "value": "muscle wasting and became anemic"}, {"measurement": "abdominal swelling (FIG. 24)", "setting": "[7]; physical appearance of mice after treatment", "value": "displayed abdominal swelling"}, {"measurement": "tumor size vs vehicle control (FIG. 23)", "setting": "[7]; single agents: LY294002 50 mg/kg, carboplatin 60 mg/kg", "value": "no significant difference"}]}]}
